Patent US12344862B2, “Human intestinal epithelium model and method for preparing same” (KOREA RESEARCH INSTITUTE OF BIOSCIENCE AND BIOTECHNOLOGY, priority 2020, dated 2025)

What was measured:
[1] = test system: hPSCs; assay: qPCR of intestinal epithelial marker genes during differentiation of hPSCs into hIEC progenitors; type: cell-based, human; details: component of hIEC differentiation medium 1; FIG. 2
Experimental: In Example 1, to identify effects, on differentiation of the hPSCs into the hIEC progenitors, of R-spondin 1, which is an agonist of Wnt signaling, and insulin in composition of the hIEC differentiation medium 1, expression levels of marker genes related to intestinal epithelial cells were checked through qPCR analysis. Specifically, total RNA and cDNA were prepared using RNeasy kit (Qiagen) and Superscript IV cDNA synthesis kit (Thermo Fisher Scientific Inc.), respectively. qPCR was performed using a 7500 Fast real-time PCR system (Applied Biosystems, Foster City, CA, USA).

[2] = test system: Caco-2 cell line; assay: in vitro; type: in vitro ADME, human
Experimental: (§1) The cells were prepared in the same manner as in Experimental Example 6.1. The functional hIECs and the Caco-2 cell line were washed 3 times with a transport buffer. […] The concentration of each compound in the sample was analyzed using LC-MS/MS. The apparent permeability coefficient was calculated according to the following equation. [formula] In the equation, dQ/dt, A, and C0 represent a transport rate, a surface area of the insert, and an initial concentration of the compound in the donor compartment, respectively. Chromatographic quantification of each compound was performed using an LC-tandem mass spectrometry system equipped with Shimadzu Prominence UPLC system (Shimadzu, Kyoto, Japan) and API 2000 QTRAP mass spectrometer (Applied Biosystems, Foster City, CA, USA). […] Then, an aliquot (10 μl) of the supernatant was injected directly into the LC-MS/MS system. Separation was performed using a Waters XTerra MS C18 column (2.1×50 mm, 5 μm, Milford, MA, USA) with a concentration gradient of 0.1% formic acid in acetonitrile and 0.1% formic acid in water at a flow rate of 0.4 ml/min. Transitions were made as follows to detect the analyte: […]

[3] = in vitro; type: in vitro ADME, human; details: human
Experimental: as §1

[4] = test system: functional hIECs; assay: in vitro; type: in vitro ADME, human; details: Caco-2
Experimental: as §1

[5] = test system: Wnt pathway and the Notch pathway; assay: qPCR of ATOH1, HES1, AXIN2, CTNNB1 during differentiation of hIEC progenitors into functional hIECs; type: cell-based, human; details: 2 μM Wnt-059 and 1 mM valproic acid together in hIEC differentiation medium 2; functional vs immature hIECs; FIG. 7
Source text: To identify effects of Wnt-059 and valproic acid, which belong to the components of the hIEC differentiation medium 2 in Example 2, on the Wnt pathway and the Notch pathway during differentiation of hIEC progenitors into functional hIECs, expression levels of ATOH1, HES1, AXN2, and CTNNB1 genes in human small intestine (hSI) tissue, immature hIECs, and functional hIECs were checked through qPCR analysis. Here, inactivation of the Wnt pathway and activation of the Notch pathway inhibited differentiation of ISCs into secretory cells. qPCR was performed in the same manner as in Experimental Example 1, and the primers used are shown in Table 3 below.

insulin: hormone secreted from beta cells of the islet of Langerhans; component of hIEC differentiation medium 1
effect on expression of intestinal epithelial marker genes (qPCR) [1]: increased expression of VIL1 and ANPEP

CC(C)NCC(O)COc1cccc2ccccc12 (centres unmarked) [propranolol]
Fintestine (fraction absorbed in the human intestine) estimated from Papp [2]: 0.98
Papp A→B at 2 h [3]: 11 ± 1.28 ×10⁻⁶ cm/s
Papp A→B at 2 h ([3]; Caco-2): 32.3 ± 2.61 ×10⁻⁶ cm/s
Fintestine (fraction absorbed in the human intestine) estimated from Papp [4]: 0.78

COCCc1ccc(OCC(O)CNC(C)C)cc1 (centres unmarked) [metoprolol]
Papp A→B at 2 h [3]: 11.1 ± 1.15 ×10⁻⁶ cm/s
Papp A→B at 2 h ([3]; Caco-2): 36.5 ± 1.09 ×10⁻⁶ cm/s

O=C(O)Cc1ccccc1Nc1c(Cl)cccc1Cl [diclofenac]
Papp A→B at 2 h [3]: 9.82 ± 0.04 ×10⁻⁶ cm/s
Papp A→B at 2 h ([3]; Caco-2): 36.2 ± 1.49 ×10⁻⁶ cm/s

CCCC(CCC)C(=O)O [valproic acid]
effect on Wnt pathway and Notch pathway (qPCR of ATOH1, AXIN2, CTNNB1, HES1) [5]: inhibited the Wnt pathway and activated the Notch pathway

Cc1cc(-c2ccc(CC(=O)Nc3ccc(-c4cccnc4)cc3)cc2)ccn1 [Wnt-059, Wnt C-59]
effect on Wnt pathway and Notch pathway (qPCR of ATOH1, AXIN2, CTNNB1, HES1) [5]: inhibited the Wnt pathway and activated the Notch pathway

CNC(=C[N+](=O)[O-])NCCSCc1ccc(CN(C)C)o1 [ranitidine]
Papp A→B at 2 h [3]: 6.98 ± 0.66 ×10⁻⁶ cm/s
Papp A→B at 2 h ([3]; Caco-2): 0.98 ± 0.02 ×10⁻⁶ cm/s

B1: R-spondin 1: secreted protein encoded by Rspo1 gene, can promote Wnt/β catenin signals; agonist of Wnt signaling (protein, UniProt Q2MKA7 21-263, looked up)
R-spondin-1: SRGIKGKRQRRISAEGSQACAKGCELCSEVNGCLKCSPKLFILLERNDIRQVGVCLPSCPPGYFDARNPDMNKCIKCKIEHCEACFSHNFCTKCKEGLYLHKGRCYPACPEGSSAANGTMECSSPAQCEMSEWSPWGPCSKKQQLCGFRRGSEERTRRVLHAPVGDHAACSDTKETRRCTVRRVPCPEGQKRRKGGQGRRENANRNLARKESKEAGAGSRRRKGQQQQQQQGTVGPLTSAGPA
effect on expression of intestinal epithelial marker genes (qPCR) [1]: increased expression of markers of major cell types in the intestinal epithelium
